Assay results from patent US8816095B2, “Na channels, disease, and related assays and compositions” (Georgetown University, priority 2008, dated 2014).

Tests used:
hERG potassium channels = target: T1, hERG potassium channels (Homo sapiens, UniProt Q12809); experiment: hERG binding assay ([35S]MK-499 displacement); settings: [35S]MK-499, HEK-293 hERG membranes
T1 construct: expressed in transfected cells; host or cells: HEK-293 (membranes)
Excerpt: All four compounds were also counter-screened for human ether-a-go-go-related gene (hERG) activity against the radio-ligand MK-0499. Blockade of hERG K^+ channels is widely regarded as the predominant cause of drug-induced QT prolongation. (Aronov, A J Med Chem. 2006 Nov. 16; 49(23):6917-21).
MK-499, a potent hERG blocker, was used in a ligand binding assay to evaluate the binding of test compounds to hERG potassium channels as previously described (Wang, J et al. Am J Physiol Heart Circ Physiol, 2003, 284: H256-H267).^2 Test compounds were incubated with 0.05 nM of radiolabeled MK-499 ([35S]MK-499; specific Activity=1,279,010 μCi/μmol) in an assay buffer solution (70 mM NaCl, 60 mM KCl, 10 mM HEPES/NaOH (pH 7.4), 2 mM MgCl2, 1 mM CaCl2) also containing membranes isolated from HEK-293 cells stably expressing hERG channels in 96 well polypropylene deep-well assay plates at room temperature (25° C.) for >90 min. Assay plates were rinsed three time with buffer (130 mM NaCl, 10 mM HEPES/NaOH (pH 7.4), 2 mM MgCl2, 1 mM CaCl2) and the solution transferred to a Packard FilterMate Universal Harvester apparatus and filtered using PerkinElmer UniFilter-96 GF/C 96-well white microplates pre-soaked with 0.3% BSA (10 mL/L of 30% BSA). Plates were dried overnight at 37° C., or for 2 hrs at 56° C. The bottom of the plates were sealed and 0.025 mL of Microscint 0 was added to each well. The plates were top sealed and counted for 2 min/well in a Packard TopCount Scintillation counter. Test compounds were evaluated in a five point titration format using half-log steps from 0.3 μM to 30 μM. […] Less than 5% of the added radioactivity was retained on the filters. Assays were performed in triplicate.

CWR22rv-1 cells = experiment: CWR22rv-1 prostate cancer cell death (propidium iodide, FACS); assay type: cell-based, human
Experimental: CWR22Rv1 cells (ATCC, Manassas, Va.) were seeded in 6 well tissue culture plate at density of 300,000 cells/well and maintained in RPMI 1640 (Mediatech, Herndon, Va.) containing 10% fetal bovine serum, 2.5 mM L-glutamine, and penicillin-streptomycin (100 IU/ml and 100 μg/ml, respectively) at 37° C. with 5% CO2. Cells were then switched to serum free RPMI media overnight prior to drug treatment. Compounds were dissolved in 100% dimethylsulfoxide (DMSO) and diluted to the desired concentrations in serum free RPMI. Cells were treated with indicated drug concentrations (in triplicate per treatment point) for 24, 48, 72 hour. After treatment, cells were harvested by trypsinization and fixed in 70% ethanol. The fixed cells were then stained with propidium iodide (50 μg/ml) after treatment with RNase (5 μg/ml). The stained cells were analyzed for DNA content using FACSsort (Becton Dickinson). Cell cycle fractions were quantified with Cell Quest (Becton Dickinson) or ModFit LT (Verity Software House).

hNav1.7 = target: T2, hNav1.7 (Homo sapiens, UniProt Q15858); experiment: Fluorescent (FRET) based sodium channel assay, hNav1.7; assay type: cell-based; settings: HEK293 stably transfected with hNav1.7, 20 μM veratridine, read-out: hNav 1.7 IC50
T2 construct: expressed in transfected cells; host or cells: HEK293
T2 sequence (Q15858 whole entry): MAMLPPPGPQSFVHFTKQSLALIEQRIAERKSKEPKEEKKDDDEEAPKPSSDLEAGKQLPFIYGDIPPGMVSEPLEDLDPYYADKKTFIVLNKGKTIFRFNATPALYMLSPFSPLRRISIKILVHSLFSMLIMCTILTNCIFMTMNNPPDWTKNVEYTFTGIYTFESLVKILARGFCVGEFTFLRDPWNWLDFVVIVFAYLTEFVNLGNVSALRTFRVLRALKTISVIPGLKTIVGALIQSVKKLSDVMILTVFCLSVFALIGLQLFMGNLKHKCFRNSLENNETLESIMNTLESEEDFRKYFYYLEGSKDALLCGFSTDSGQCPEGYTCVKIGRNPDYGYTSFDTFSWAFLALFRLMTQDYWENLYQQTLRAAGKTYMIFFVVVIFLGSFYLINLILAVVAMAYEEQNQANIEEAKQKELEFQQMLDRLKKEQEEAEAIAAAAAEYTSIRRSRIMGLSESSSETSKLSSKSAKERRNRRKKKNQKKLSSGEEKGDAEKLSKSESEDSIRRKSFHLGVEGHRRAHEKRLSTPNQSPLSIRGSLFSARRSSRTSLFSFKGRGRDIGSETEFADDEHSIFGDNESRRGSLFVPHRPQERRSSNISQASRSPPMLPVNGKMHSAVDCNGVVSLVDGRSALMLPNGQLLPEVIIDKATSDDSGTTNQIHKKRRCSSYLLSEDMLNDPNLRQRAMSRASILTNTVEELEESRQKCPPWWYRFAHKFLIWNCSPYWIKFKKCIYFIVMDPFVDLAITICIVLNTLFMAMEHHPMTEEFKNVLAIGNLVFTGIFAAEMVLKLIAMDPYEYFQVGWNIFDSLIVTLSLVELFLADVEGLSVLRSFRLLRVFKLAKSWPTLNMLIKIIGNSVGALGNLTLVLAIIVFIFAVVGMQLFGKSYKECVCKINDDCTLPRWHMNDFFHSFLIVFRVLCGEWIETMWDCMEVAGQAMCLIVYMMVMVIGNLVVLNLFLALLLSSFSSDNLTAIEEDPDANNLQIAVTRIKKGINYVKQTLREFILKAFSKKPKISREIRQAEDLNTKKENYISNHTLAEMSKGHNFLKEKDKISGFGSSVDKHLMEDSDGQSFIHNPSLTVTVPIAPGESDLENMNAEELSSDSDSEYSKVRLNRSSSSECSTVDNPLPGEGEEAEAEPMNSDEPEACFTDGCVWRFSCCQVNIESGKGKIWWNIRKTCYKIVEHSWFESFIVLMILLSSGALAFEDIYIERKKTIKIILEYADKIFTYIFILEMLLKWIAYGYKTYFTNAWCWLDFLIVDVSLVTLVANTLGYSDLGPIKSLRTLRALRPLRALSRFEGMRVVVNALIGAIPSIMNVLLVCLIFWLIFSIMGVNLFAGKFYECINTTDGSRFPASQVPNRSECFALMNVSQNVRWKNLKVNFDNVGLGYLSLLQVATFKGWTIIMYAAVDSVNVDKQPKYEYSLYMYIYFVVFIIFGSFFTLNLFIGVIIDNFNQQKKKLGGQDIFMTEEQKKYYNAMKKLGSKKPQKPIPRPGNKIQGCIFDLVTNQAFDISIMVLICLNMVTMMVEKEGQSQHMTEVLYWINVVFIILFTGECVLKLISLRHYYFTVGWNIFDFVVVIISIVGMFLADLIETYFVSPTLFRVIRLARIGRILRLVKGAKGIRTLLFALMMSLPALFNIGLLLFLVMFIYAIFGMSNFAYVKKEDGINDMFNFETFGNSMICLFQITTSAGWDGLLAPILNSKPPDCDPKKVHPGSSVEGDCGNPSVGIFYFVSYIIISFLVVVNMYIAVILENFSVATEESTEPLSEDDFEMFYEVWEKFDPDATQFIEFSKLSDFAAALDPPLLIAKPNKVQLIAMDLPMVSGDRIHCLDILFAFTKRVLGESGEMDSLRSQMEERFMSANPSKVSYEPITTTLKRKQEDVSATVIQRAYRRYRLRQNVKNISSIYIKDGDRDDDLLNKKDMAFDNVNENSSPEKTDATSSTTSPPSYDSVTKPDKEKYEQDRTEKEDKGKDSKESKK
Experimental: Two isoforms of the channel were examined: hNav1.5, a cardiac sodium channel associated with arrhythmias, and hNav1.7, an isoform found in the peripheral nervous system.
HEK293 cells stably transfected with either hNav1.5 or hNav1.7 were plated at approximately 11,000-20,000 cells/well in flat bottom, poly-D-lysine coated black-wall, clear-bottom, 384-well plates (Becton Dickinson, Bedford, Mass.), and incubated overnight at 37° C. in a 10% CO2 atmosphere in growth medium. Cells were washed with 0.03 mL of Dulbecco's phosphate buffered saline (D-PBS) containing calcium and magnesium. Cells were then incubated with 0.025 mL of a solution containing 10 μM CC2-DMPE and 0.02% pluronic acid in D-PBS with calcium and magnesium; supplemented with 10 mM glucose, and 10 mM Hepes-NaOH, pH 7.4. […] Afterwards, cells were incubated in the dark at 25° C. for 45 min with 0.025 mL of a solution containing 5 μM DiSBAC2(3) in VIPR-S, in the absence or presence of test compound. At the end of the incubation period, the plate was placed in a FLIPR TETRA instrument (MDS Analytical Technologies, Sunnyvale Calif.), illuminated at 390-420 nm, and fluorescence emissions were recorded at approximately 1 Hz at 460 and 580 nm. Following a 7 second baseline reading, 0.025 mL of VIPR-S containing 10 μM veratridine for Nav1.5 or 20 μM veratridine for Nav1.7 was added to each well, and the emissions of both dyes were recorded for an additional 33 seconds. The change in fluorescence resonance energy transfer (FRET) ratio (F/F0) was calculated as: F/F0=((A460/A580/(I460/I580) where A and I represent the readings after or before addition of veratridine, respectively, at the indicated wavelengths. For I, the readings from 2-5 seconds were averaged, and for A, readings from 3 seconds after the signal had reached a plateau level (usually within 30-40 s) were also averaged. Triplicate measurements were performed for each experimental condition and the data were averaged.

[1] = target: T3, human Nav channel isoform, Nav1.2 (Homo sapiens, UniProt Q99250); experiment: Patch clamp electrophysiology of compound 1 on Nav1.2 in HEK 293; assay type: cell-based; settings: HEK293, HEK 293 Nav1.2, holding −60 mV to +10 mV, read-out: inhibition of Nav channel current
T3 construct: expressed in transfected cells; host or cells: HEK 293
T3 sequence (Q99250 whole entry, canonical isoform): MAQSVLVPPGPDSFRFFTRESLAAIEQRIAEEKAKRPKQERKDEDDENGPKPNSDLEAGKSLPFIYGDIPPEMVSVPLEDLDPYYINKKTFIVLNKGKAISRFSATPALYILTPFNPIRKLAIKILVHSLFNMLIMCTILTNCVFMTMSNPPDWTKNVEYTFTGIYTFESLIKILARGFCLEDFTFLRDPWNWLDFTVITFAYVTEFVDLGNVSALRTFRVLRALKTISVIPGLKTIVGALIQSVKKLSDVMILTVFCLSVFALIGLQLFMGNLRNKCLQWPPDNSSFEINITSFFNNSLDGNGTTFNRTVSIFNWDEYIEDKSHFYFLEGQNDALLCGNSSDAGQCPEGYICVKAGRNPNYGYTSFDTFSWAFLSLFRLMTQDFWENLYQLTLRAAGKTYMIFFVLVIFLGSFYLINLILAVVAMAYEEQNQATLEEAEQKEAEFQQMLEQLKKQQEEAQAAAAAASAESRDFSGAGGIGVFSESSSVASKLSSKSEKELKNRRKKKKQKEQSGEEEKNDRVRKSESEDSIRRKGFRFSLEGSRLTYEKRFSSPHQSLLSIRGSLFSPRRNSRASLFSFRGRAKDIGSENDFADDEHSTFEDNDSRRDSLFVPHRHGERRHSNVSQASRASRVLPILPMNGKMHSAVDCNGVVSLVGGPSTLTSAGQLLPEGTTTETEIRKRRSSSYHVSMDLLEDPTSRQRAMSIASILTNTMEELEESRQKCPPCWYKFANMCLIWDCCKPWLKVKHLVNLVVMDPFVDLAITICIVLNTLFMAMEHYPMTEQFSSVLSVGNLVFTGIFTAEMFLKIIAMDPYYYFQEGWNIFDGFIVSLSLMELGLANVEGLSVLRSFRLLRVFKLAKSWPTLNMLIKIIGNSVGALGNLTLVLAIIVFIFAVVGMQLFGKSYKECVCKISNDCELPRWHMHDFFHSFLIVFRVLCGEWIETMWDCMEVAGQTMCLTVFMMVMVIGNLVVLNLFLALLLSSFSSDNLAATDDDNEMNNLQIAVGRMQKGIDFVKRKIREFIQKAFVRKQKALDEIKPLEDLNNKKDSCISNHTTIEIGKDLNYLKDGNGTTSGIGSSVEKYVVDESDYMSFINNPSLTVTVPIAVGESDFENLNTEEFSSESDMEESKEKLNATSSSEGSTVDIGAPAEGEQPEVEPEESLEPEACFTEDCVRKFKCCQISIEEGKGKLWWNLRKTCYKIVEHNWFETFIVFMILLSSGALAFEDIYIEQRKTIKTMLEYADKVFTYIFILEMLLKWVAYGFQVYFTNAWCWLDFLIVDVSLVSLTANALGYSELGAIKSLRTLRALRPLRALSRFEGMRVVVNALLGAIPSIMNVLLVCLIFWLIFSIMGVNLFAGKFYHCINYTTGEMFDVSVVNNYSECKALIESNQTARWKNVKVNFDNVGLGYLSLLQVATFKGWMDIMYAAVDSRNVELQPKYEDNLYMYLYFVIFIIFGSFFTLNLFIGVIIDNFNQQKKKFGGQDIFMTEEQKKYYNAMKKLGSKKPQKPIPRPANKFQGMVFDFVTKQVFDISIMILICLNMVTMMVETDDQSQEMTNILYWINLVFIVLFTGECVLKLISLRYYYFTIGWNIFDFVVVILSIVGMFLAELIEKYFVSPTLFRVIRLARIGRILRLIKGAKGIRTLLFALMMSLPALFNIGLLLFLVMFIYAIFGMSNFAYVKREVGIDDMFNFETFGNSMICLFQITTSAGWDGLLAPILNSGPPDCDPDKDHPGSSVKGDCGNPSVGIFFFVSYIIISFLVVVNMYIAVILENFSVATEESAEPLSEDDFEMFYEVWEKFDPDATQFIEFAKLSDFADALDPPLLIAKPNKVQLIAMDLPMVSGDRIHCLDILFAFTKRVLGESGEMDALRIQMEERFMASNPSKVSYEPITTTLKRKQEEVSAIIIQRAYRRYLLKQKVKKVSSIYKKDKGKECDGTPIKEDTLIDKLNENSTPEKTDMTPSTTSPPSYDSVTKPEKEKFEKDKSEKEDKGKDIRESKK
Experimental: The effects of the racemic mixture and enantiomers of compound 1 were also examined by patch clamp electrophysiology on the human Nav channel isoform, Nav1.2, stably expressed in human embryonic kidney cells (HEK 293). Nav currents were elicited by step depolarizations from a holding potential of −60 mV to +10 mV for 25 ms at 15 s intervals. Sodium currents were record during a control drug free condition, after 5 mins of drug perfusion and following washout. […] The racemic mixture inhibited the sodium channel current by 31.9±2.9% (n=3) at 1 μM and by 87.0±3.1% (n=3) at 10 μM (FIG. 14). All drug effects were fully reversible on washout.
Sodium currents were recorded using the whole-cell configuration of the patch clamp recording technique with an Axopatch 200 amplifier (Axon Instruments, Foster City, Calif.). All voltage protocols were applied using pCLAMP 9 software (Axon, USA) and a Digidata 1322A (Axon, USA). Currents were amplified and low pass filtered (2 kHz) and sampled at 33 kHz. Borosilicate glass pipettes were pulled using a Brown-Flaming puller (model P87, Sutter Instruments Co, Novato, Calif.) and heat polished to produce electrode resistances of 1.5-3.0 MΩ when filled with the following electrode solution (in mM); CsCl 130, MgCl2 1, MgATP 5, BAPTA 10, HEPES 5 (pH adjusted to 7.4 with CsOH). Cells were plated on glass coverslips and superfused with solution containing the following composition; (in mM) NaCl 130, KCl 4, CaCl2 1, MgCl2 5, HEPES 5, and glucose 5 (pH adjusted to 7.4 with NaOH). Compounds were prepared as 100 mM stock solutions in dimethyl sulfoxide (DMSO) and diluted to desired concentration (1 μM or 10 μM) in perfusion solution. All experiments were performed at room temperature (20-22° C.). After establishing whole-cell, a minimum series resistance compensation of 75% was applied and cells were held at −100 mV for 5 minutes to account for equilibrium gating shifts. Sodium currents were evoked by stepping to +10 mV from a holding potential of −60 mV for 25 ms at 15 s intervals. After control recordings, test compounds were applied for five minutes to allow for bath equilibration. Tonic block was assessed by comparing peak sodium current in drug free conditions to peak current when drug was present. Data analysis was performed using Clampfit software (v9, Axon Instruments, CA, USA) and Origin (v6, Microcal Software, MA, USA).

human prostate tissue = experiment: Staining of human prostate paraffin embedded tissue slices; settings: 100 μM
Experimental: The binding and localization of compound 26 in prostate and prostate cancer tissue was studied. Human prostate paraffin embedded tissue slices were stained with 100 μM of compound 26 and dansyl amine.

T1 sequence (Q12809 whole entry): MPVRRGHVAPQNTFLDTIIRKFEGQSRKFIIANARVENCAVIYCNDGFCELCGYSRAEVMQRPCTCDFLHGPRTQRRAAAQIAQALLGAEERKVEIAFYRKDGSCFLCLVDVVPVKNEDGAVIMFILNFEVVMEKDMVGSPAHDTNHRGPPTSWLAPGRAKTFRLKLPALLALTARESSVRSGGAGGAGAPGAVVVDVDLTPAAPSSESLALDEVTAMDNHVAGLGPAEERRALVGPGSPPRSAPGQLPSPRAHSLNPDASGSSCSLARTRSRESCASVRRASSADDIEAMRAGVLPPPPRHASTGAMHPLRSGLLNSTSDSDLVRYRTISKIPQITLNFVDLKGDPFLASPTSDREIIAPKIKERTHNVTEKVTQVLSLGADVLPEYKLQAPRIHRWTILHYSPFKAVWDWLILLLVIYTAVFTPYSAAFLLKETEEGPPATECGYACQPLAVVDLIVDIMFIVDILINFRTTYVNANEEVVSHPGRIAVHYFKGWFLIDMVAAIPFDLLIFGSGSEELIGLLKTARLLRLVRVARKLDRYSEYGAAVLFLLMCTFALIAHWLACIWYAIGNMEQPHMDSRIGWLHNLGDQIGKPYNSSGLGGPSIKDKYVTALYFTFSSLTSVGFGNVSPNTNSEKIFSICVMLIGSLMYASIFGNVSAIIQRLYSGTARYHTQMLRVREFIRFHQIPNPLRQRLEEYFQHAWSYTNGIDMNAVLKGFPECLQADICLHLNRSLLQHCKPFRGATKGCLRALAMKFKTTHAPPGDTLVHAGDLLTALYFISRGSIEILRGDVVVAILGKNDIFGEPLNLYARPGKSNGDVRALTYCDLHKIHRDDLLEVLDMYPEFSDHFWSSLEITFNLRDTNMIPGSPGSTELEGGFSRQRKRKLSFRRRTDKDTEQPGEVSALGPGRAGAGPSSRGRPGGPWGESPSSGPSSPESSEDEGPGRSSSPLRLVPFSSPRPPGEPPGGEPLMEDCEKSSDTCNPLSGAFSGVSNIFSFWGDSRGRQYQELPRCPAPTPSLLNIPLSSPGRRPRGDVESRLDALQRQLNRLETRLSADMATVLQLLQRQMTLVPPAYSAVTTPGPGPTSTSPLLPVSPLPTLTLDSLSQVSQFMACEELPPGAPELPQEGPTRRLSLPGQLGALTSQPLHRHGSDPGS

Row | SMILES | % inhibition for hERG assay, 0.3 μM (hERG potassium channels) | % inhibition for hERG assay, 1 μM (hERG potassium channels) | % inhibition for hERG assay, 3 μM (hERG potassium channels) | % inhibition for hERG assay, 10 μM (hERG potassium channels) | % inhibition for hERG assay, 30 μM (hERG potassium channels) | cell death of CWR22rv-1 cells (CWR22rv-1 cells; 25 μM, after 24 h) | cell death of CWR22rv-1 cells (CWR22rv-1 cells; after 72 h) | IC50 (hNav1.7) | inhibition at 1 µM [1] | inhibition at 10 µM [1] | binding to human prostate tissue (microscopy) (human prostate tissue)
1 | CCCCCCC[C@@](O)(C(N)=O)c1cccc(Cl)c1 [Compound (S)-(+)-1, (S)-(+)-2-(3-chloro-phenyl)-2-hydroxy-nonanoic acid amide] | 10% | 25% | 33% | 65% | 90% | marginal effects | 40% | 2.62 µM | 34.9 ± 2.3% | 91.5 ± 0.5% | –
2 | CN(C)c1cccc2c(S(N)(=O)=O)cccc12 [dansyl amine, reference compound] | – | – | – | – | – | – | – | – | – | – | does not bind
3 | CCCCCCC[C@](O)(C(N)=O)c1cccc(Cl)c1 [Compound (R)-(−)-1, (R)-(−)-2-(3-chloro-phenyl)-2-hydroxy-nonanoic acid amide] | 16% | 26% | 20% | 57% | 90% | approximately 25% | 60% | 1.88 µM | 67.4 ± 5.3% | 94.3 ± 0.6% | –
